In patent US20100160255A1, “SPIRO-CYCLIC COMPOUND” (Takeda Pharmaceutical Company Limited, priority 2005, published 2010):
Where two headings read alike, the source gives them in different places.

Legend:
human ACC1 = molecular target: T1, human ACC1 (Homo sapiens, UniProt Q13085); assay: ACC1 inhibitory activity (malachite green absorbance assay, recombinant enzyme); type: biochemical
T1 construct: made in house; host or cells: SF-9 insect cells, recombinant baculovirus BAC-ACC1
Description: The ACC1 inhibitory activity of the compound of the present invention was evaluated by the following method.
(§1) Human ACC1 gene was cloned by PCR using human liver cDNA library (Clontech) as a template, and Primer 1 and Primer 2 shown below. Primer 1 and Primer 2 were prepared by adding recognition sequence of restriction enzymes SalI and NotI based on the information of the base sequence (Genbank Accession U19822) of human ACC1 gene.
(§2) PCR was performed using Pyrobest DNA polymerase (TAKARA BIO INC.). The obtained PCR product was cloned to pT7 Blue vector (Novagen) which was, after confirmation of the base sequence, digested with restriction enzymes SalI and NotI. The obtained DNA fragment was inserted into pFAST-BacHTc (Invitrogen) digested with restriction enzymes SalI and NotI to give expression plasmid ACC1/pFAST-BacHTc.
Using the expression plasmid and BAC-TO-BAC Baculovirus Expression System (Invitrogen), virus stock BAC-ACC1 of recombinant Baculovirus was prepared.
(§3) SF-9 cells (Invitrogen) were sown at 1×10^6 cells/mL to insect cell culture medium (1 L, Sf-900II SFM medium (Invitrogen) containing 10% fetal bovine serum (Trace), 50 mg/L gentamicin (Invitrogen) and 0.1% Pluronic F-68 (Invitrogen)), and shaking culture was performed using a 2 L volume Erlenmeyer flask at 27° C., 100 rpm.
After culturing for 24 hr, the recombinant Baculovirus BAC-ACC1 (10 mL) was added, and the mixture was further cultured for 3 days. The culture medium was centrifuged at 1000×g for 5 min to give virus-infected cells. The infected cells were washed with phosphate buffered saline (Invitrogen) and centrifuged under the same conditions, and the obtained cells were cryopreserved at −80° C.
The cryopreserved cells were thawed in ice, suspended in 25 mM HEPES buffer (100 mL, pH 7.5) containing 10% Glycerol, 0.13 M NaCl, 1 mM EDTA, 25 mM sodium β-glycerophosphate, 1 mM sodium orthovanadate, added with Complete Protease Inhibitor (Boehringer). The obtained suspension was homogenized 3 times with a Polytron homogenizer (Kinematica) at 20,000 rpm for 30 seconds. The obtained cell disrupt solution was clarified by centrifugation at 185700×g for 50 min and filtrated using a 0.45 μm filter. The filtrate was passed through a column packed with Ni-NTA Super Flow Gel (QIAGEN, 12 mL) at a flow rate of about 5 mL/min. The column was washed with buffer A (50 mM HEPES containing 0.3M NaCl, pH 7.5), further washed with buffer A containing 20 mM Imidazole, and eluted with buffer A containing 100 mM Imidazole. The eluate was concentrated with Vivaspin 20 (Vivascience) having a molecular weight cut off of 30 K. The obtained concentrate was dialyzed using Sephadex G-25 (Amersham Bioscience K.K., 358 mL) equilibrated with 50 mM HEPES (pH7.5) containing 10 mM MgCl2, 2 mM dithiothreitol, 10 mM tripotassium citrate and 0.3M NaCl. The dialysate was concentrated with Vivaspin 20 (Vivascience) having a molecular weight cut off of 30 K and the concentrate was filtered through a 0.22 μm filter to give ACC1. The obtained ACC1 was cryopreserved at −80° C.
ACC1 (0.93 mg/ml) obtained in (2) above was diluted to a concentration of 8 μg/ml with an enzyme reaction buffer (50 mM HEPES (pH7.5), 10 mM MgCl2, 10 mM tripotassium citrate, 2 mM dithiothreitol, 0.75 mg/ml fatty acid free BSA), and added to each well of a 384 well assay plate (Nunc 265196) by 10 μl. […]

human ACC2 = molecular target: T2, human ACC2 (Homo sapiens, UniProt O00763); assay: ACC2 inhibitory activity (malachite green absorbance assay, recombinant ACC2(Nd)); type: biochemical
T2 construct: made in house; host or cells: SF-9 insect cells, recombinant baculovirus BAC-ACC2(Nd)
T2 sequence (O00763 117-2458 limits assumed): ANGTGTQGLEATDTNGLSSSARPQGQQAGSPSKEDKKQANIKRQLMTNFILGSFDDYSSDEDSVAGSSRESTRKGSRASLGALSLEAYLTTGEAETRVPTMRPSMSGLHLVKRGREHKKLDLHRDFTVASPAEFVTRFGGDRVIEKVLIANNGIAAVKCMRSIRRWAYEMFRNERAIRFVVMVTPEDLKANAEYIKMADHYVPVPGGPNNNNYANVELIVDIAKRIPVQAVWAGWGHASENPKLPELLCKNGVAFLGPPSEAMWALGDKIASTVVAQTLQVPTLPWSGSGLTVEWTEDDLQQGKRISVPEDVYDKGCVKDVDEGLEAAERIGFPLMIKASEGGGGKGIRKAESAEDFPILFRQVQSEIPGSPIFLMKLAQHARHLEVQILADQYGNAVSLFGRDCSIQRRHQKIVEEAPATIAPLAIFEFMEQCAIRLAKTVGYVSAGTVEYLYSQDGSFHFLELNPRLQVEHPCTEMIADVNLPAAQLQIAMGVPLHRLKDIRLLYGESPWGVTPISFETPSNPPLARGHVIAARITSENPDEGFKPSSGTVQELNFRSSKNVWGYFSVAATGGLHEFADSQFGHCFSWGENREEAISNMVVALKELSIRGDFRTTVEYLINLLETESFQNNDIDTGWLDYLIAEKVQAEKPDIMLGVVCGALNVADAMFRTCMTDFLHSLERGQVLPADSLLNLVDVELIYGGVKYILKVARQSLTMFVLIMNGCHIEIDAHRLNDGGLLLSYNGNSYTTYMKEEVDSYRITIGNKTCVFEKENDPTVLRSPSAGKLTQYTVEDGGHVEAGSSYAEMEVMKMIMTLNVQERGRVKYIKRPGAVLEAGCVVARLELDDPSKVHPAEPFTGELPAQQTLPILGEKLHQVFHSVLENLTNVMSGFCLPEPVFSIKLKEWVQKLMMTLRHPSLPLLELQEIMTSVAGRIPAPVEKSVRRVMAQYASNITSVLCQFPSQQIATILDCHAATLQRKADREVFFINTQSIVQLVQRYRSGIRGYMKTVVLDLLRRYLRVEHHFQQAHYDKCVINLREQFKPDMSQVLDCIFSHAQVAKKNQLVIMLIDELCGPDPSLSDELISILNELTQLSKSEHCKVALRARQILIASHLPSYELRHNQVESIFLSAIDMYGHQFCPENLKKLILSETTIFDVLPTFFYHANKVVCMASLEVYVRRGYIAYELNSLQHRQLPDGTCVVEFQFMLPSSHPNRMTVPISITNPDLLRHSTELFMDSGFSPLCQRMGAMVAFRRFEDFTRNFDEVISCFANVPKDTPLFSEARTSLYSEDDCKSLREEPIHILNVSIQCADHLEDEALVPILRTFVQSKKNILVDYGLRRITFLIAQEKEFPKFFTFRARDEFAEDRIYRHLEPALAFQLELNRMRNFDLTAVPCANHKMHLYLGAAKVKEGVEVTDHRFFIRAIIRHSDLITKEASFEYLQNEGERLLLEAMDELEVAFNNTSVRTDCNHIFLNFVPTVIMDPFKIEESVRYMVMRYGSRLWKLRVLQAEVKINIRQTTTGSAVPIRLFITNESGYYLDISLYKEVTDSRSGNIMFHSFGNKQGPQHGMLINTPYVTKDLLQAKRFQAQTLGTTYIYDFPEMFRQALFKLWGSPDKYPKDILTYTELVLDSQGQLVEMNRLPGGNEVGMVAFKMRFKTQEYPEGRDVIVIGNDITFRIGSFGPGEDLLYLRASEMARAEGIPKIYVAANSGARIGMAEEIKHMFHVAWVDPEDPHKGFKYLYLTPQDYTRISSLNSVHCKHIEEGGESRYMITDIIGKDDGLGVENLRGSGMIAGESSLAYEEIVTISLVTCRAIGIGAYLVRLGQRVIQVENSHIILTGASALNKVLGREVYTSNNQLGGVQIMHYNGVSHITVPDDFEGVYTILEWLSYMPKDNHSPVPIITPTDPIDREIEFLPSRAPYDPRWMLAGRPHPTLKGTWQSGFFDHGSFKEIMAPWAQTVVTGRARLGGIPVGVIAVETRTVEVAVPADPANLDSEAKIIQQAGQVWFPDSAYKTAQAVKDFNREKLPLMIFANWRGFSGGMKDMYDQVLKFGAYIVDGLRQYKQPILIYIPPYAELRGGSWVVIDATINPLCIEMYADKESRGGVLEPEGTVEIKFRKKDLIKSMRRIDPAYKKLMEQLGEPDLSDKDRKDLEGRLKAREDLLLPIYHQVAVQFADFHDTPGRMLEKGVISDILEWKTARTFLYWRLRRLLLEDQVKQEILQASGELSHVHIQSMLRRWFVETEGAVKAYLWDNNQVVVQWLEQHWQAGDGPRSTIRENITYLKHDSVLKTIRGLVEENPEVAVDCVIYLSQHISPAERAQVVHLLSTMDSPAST
Description: The ACC2 inhibitory activity of the compound of the present invention was evaluated by the following method.
as §1, with “ACC2” for “ACC1”, “skeletal muscle” for “liver”, “XbaI” for “NotI”, “U89344)” for “U19822)”
as §2, with “XbaI.” for “NotI.”, “pFAST-BacHTa” for “pFAST-BacHTc”, “XbaI” for “NotI”, “ACC2/pFAST-BacHTa.” for “ACC1/pFAST-BacHTc.”
A plasmid for expression of ACC2 free of mitochondrial targeting sequence was prepared by PCR using the expression plasmid as a template, and Primer 3 and Primer 4 shown below.
as §2, with “AflII.” for “NotI.”, “pFAST-BacHTa” for “pFAST-BacHTc”, “AflII” for “NotI”, “ACC2mito7/pFAST-BacHTa.” for “ACC1/pFAST-BacHTc.”
Using the expression plasmid and BAC-TO-BAC Baculovirus Expression System (Invitrogen), virus stock BAC-ACC2 of recombinant Baculovirus (N terminal deletion (hereinafter Nd)) was prepared.
as §3, with “0.5×10^6” for “1×10^6”, “(2” for “(1”, “Wave Bioreactor (Wave) under the conditions of” for “2 L volume Erlenmeyer flask at”, “20 rpm, rocking angle of 6° and oxygen concentration of 30%.” for “100 rpm.”
On day 4 of the culture, 3 L of an insect cell culture medium was added, the rocking angle was set to 8°, and the cells were further cultured. On day 5 of the culture, the recombinant Baculovirus BAC-ACC2(Nd) (100 mL) was added, 5 L of the insect cell culture medium was further added, the rocking angle was set to 11°, and the cells were cultured for 3 days. The culture medium was centrifuged at 1000×g for 10 min to give virus-infected cells. The infected cells were washed with phosphate buffered saline (Invitrogen) and centrifuged under the same conditions, and the obtained cells were cryopreserved at −80° C.
The cryopreserved cells were thawed in ice, suspended in 25 mM HEPES buffer (900 mL, pH 7.5) containing 10% Glycerol, 0.13 M NaCl, 1 mM EDTA, 25 mM sodium β-glycerophosphate, 1 mM sodium orthovanadate, added with Complete Protease Inhibitor (Boehringer). The obtained suspension was homogenized 3 times with a Polytron homogenizer (Kinematica) at 20,000 rpm for 30 seconds. The obtained cell disrupt solution was clarified by centrifugation at 31000×g for 60 min and filtrated using a 0.45 μm filter. The filtrate was passed through a column packed with Ni-NTA Super Flow Gel (QIAGEN, 60 mL) at a flow rate of about 5 mL/min. The column was washed with buffer A (50 mM HEPES containing 0.3M NaCl, pH 7.5), further washed with buffer A containing 20 mM Imidazole, and eluted with buffer A containing 100 mM Imidazole. The eluate was concentrated with Vivaspin 20 (Vivascience) having a molecular weight cut off of 30 K. The obtained concentrate was dialyzed against 50 mM HEPES (pH7.5) containing 10 mM MgCl2, 2 mM dithiothreitol, 10 mM tripotassium citrate and 0.3M NaCl. The dialysate was filtered through a 0.22 μm filter to give ACC2(Nd). The obtained ACC2(Nd) was cryopreserved at −80° C. […]

[1] = Experimental Example 3, same manner as Experimental Example 1, read-out: IC50 values (ACC1 inhibitory activity)
[2] = Table 8, recombinant human ACC1, 30° C., absorbance 620 nm, read-out: IC50 (ACC1 inhibitory activity)
[3] = Table 9, recombinant human ACC2(Nd), N terminal deletion, 30° C., absorbance 620 nm, read-out: IC50 (ACC2 inhibitory activity)

SMILES	IC50 (human ACC1; [1]) [nM]	IC50 (human ACC1; [2]) [nM]	IC50 (human ACC2; [3]) [nM]	IC50 (human ACC2; Experimental Example 4, same manner as Experimental Example 2, read-out: IC50 values (ACC2 inhibitory activity)) [nM]
CNC(=O)Nc1sc2ccccc2c1C(=O)N1CCC(N2CCCC3(C2)CC(C)(C)OC3=O)CC1 (centres unmarked) [Example 324, N-(3-{[4-(3,3-dimethyl-1-oxo-2-oxa-7-azaspiro[4.5]dec-7-yl)piperidin-1-yl]carbonyl}-1-benzothien-2-yl)-N′-methylurea]	≤ 100	–	–	–
CC(=O)c1cccc(-c2cc(C(=O)N3CCC(N4CCCC5(C4)CC(C)(C)OC5=O)CC3)cc(-c3cccnc3)c2)c1 (centres unmarked) [Example 133, 7-{1-[(3′-acetyl-5-(pyridin-3-yl)biphenyl-3-yl)carbonyl]piperidin-4-yl]-3,3-dimethyl-2-oxa-7-azaspiro[4.5]decan-1-one]	–	3300	120	–
Cc1c(C(=O)OC(C)(C)C)sc(NC(N)=O)c1C(=O)N1CCC(N2CCCC3(C2)CC(C)(C)OC3=O)CC1 (centres unmarked) [Example 291, tert-butyl 5-[(aminocarbonyl)amino]-4-{[4-(3,3-dimethyl-1-oxo-2-oxa-7-azaspiro[4.5]dec-7-yl)piperidin-1-yl]carbonyl}-3-methylthiophene-2-carboxylate]	≤ 100	–	–	–
CC1(C)CC2(CCCN(C3CCN(C(=O)c4c(NC(N)=O)sc5ccccc45)CC3)C2)C(=O)O1 (centres unmarked) [Example 290, N-(3-{[4-(3,3-dimethyl-1-oxo-2-oxa-7-azaspiro[4.5]dec-7-yl)piperidin-1-yl]carbonyl}-1-benzothien-2-yl)urea]	≤ 100	–	–	–
CCN1C(=O)CC2(CCCN(C3CCN(C(=O)c4c(NC(N)=O)sc5ccccc45)CC3)C2)C1=O (centres unmarked) [Example 340, 1-(3-{[4-(2-ethyl-1,3-dioxo-2,7-diazaspiro[4.5]dec-7-yl)piperidin-1-yl]carbonyl)-1-benzothien-2-yl)urea]	–	130	22	–
CC1(C)CC2(CN(C3CCN(C(=O)c4c5ccccc5cc5ccccc45)CC3)CCN2)C(=O)O1 (centres unmarked) [Example 153, 9-[1-(9-anthrylcarbonyl)piperidin-4-yl]-3,3-dimethyl-2-oxa-6,9-diazaspiro[4.5]decan-1-one]	–	1600	76	–
CCNC(=O)Nc1sc(-c2ccccn2)cc1C(=O)N1CCC(N2CCCC3(C2)CC(C)(C)OC3=O)CC1 (centres unmarked) [Example 179, 1-(3-{[4-(3,3-dimethyl-1-oxo-2-oxa-7-azaspiro[4.5]dec-7-yl)piperidin-1-yl]carbonyl}-5-(pyridin-2-yl)-2-thienyl)-3-ethylurea]	≤ 100	140	9	≤ 10
CC(C)N1C(=O)OC2(CCCN(C3CCN(C(=O)c4c(NC(N)=O)sc5ccccc45)CC3)C2)C1=O (centres unmarked) [Example 335, N-(3-{[4-(3-isopropyl-2,4-dioxo-1-oxa-3,7-diazaspiro[4.5]dec-7-yl)piperidin-1-yl]carbonyl}-1-benzothien-2-yl)urea]	–	260	31	–
CCN1C(=O)C2(CCCN(C3CCN(C(=O)c4c(NC(N)=O)sc5ccccc45)CC3)C2)N=C1C(C)C (centres unmarked) [Example 357, N-(3-{[4-(3-ethyl-2-isopropyl-4-oxo-1,3,7-triazaspiro[4.5]dec-1-en-7-yl)piperidin-1-yl]carbonyl}-1-benzothien-2-yl)urea]	≤ 100	–	–	–
CCNC(=O)Nc1sc2ccccc2c1C(=O)N1CCC(N2CCCC3(C2)N=C(CC)N(CC)C3=O)CC1 (centres unmarked) [Example 354, N-(3-{[4-(2,3-diethyl-4-oxo-1,3,7-triazaspiro[4.5]dec-1-en-7-yl)piperidin-1-yl]carbonyl}-1-benzothien-2-yl)-N′-ethylurea]	≤ 100	–	–	–
CCNC(=O)Nc1sc2ccccc2c1C(=O)N1CCC(N2CCNC3(C2)CC(C)(C)OC3=O)CC1 (centres unmarked) [Example 184, 1-(3-{[4-(3,3-dimethyl-1-oxo-2-oxa-6,9-diazaspiro[4.5]dec-9-yl)piperidin-1-yl]carbonyl}-1-benzothien-2-yl)-3-ethylurea]	≤ 100	–	–	–
CCNC(=O)Nc1sc2ccccc2c1C(=O)N1CCC(N2CCCC3(CC(C)N(CCO)C3=O)C2)CC1 (centres unmarked) [Example 187, 1-ethyl-3-[3-({4-[2-(2-hydroxyethyl)-3-methyl-1-oxo-2,7-diazaspiro[4.5]dec-7-yl]piperidin-1-yl}carbonyl)-1-benzothien-2-yl]urea]	≤ 100	–	–	–
CCNC(=O)Nc1sc2ccccc2c1C(=O)N1CCC(N2CCCC3(C2)OC(=O)N(C(C)(C)C)C3=O)CC1 (centres unmarked) [Example 350, N-(3-{[4-(3-tert-butyl-2,4-dioxo-1-oxa-3,7-diazaspiro[4.5]dec-7-yl)piperidin-1-yl]carbonyl}-1-benzothien-2-yl)-N′-ethylurea]	≤ 100	–	–	–
